Laboratory results reported in patent EP0609437B1, “NOVEL SPHINGOGLYCOLIPID AND USE THEREOF” (KIRIN BEER KABUSHIKI KAISHA, priority 1991, dated 1993).
Where two headings read alike, the source gives them in different places.

Columns and labels:
[1] = tested on: spleen cells of C57BL/6 mouse and pancreatic cells of BALB/c mouse; experiment: Lymphocyte mixed culture reaction (mouse MLR), uptake of 3H-TdR; assay type: cell-based; conditions: for activity at 1 µg/mL / activity at 0.1 µg/mL / activity at 0.01 µg/mL: Mus musculus, Lymphocyte, read-out: Uptake of ^3H-TdR (% of control)
Protocol: Experiment was carried out with the spleen cells of C57BL/6 mouse which had been treated with mitomycin C (50 µg/ml, 30 min) as the stimulator and with the […] cells of BALB/c mouse as the responder. These […] cells were suspended to a concentration of 2 × 10^6 cells/ml with a culture medium of 10% FCS RPMI 1640, respectively. These cells (50 µl/well) and a sample (10 µl/well) were plated in a 96 well round-bottomed plate and cultured for 42 hours* under the condition of 37°C and 5% CO2. ^3H-thymidine (^3H-TdR) was added in a dose of 0.5 µCi/well. After 8 hours, the cells were harvested and subjected to the measurement of the uptake of ^3H-TdR by a liquid scintillation counter.
*The samples of the compounds 32, 33 and 34 were cultured for 4 days.

B16 mouse melanoma cells = experiment: Anti-tumor activity against B16 mouse melanoma inoculated subcutaneously; assay type: in vivo; conditions: maximum tumor growth inhibition rate during the test period of 20 days, female BDF1 mice, 0.1 mg/kg intravenously on days 1, 5 and 9 after s.c. inoculation; for inhibition in vivo at 0.1 mg/kg: Mus musculus, iv, 480 h, read-out: TGIR (%)
Protocol: Anti-tumor activity against B16 mouse melanoma inoculated subcutaneously.
Experiment was carried out with the groups of 6 female BDF1 mice (6 weeks old) purchased from Japan SLC Inc., B16 mouse melanoma cells (1 × 10^6 cells/mouse) were inoculated subcutaneously in the rear region of mice, and the sample prepared in a concentration of 0.1 mg/kg was administered intravenously at a dose of 0.2 ml/20g/mouse after 1, 5 and 9 days from inoculation (the day of inoculation being set as 0 day). The volume of the tumor at the hypodermis of the rear region [(longer diameter × shorter diameter × height)/2] was measured on 8, 12, 16 and 20 days after inoculation, and the tumor growth inhibition rate (TGIR) of each sample was determined. TGIR was calculated from the following equation: TGIR (%) = (1 - T/C) × 100 [formula] wherein C represents a tumor volume of the control group and T represents a tumor volume of the group to which the sample was administered.
In this connection, respective test runs were divided by broken lines.

male Crj:CD rats = experiment: Acute toxicity, single intravenous administration; assay type: in vivo; conditions: 7 days
Protocol: (§1) The compound 5 was once administered intravenously in doses of 0.1, 1.0 and 10 mg/kg to the groups of 6 male Crj:CD rats (5 weeks old), and the toxicity tests were conducted for 7 days after the administration of the compound 5.

[2] = Acute toxicity, single intravenous administration; assay type: in vivo; conditions: rat, in vivo; single intravenous dose, male Crj:CD rats, observed for 7 days
Protocol: as §1

[3] = 50 h, sample concentration 10^0 µg/ml, cultured for 42 hours, then 8 hours with 3H-TdR
[4] = 50 h, sample concentration 10^-1 µg/ml, cultured for 42 hours, then 8 hours with 3H-TdR
[5] = 50 h, sample concentration 10^-2 µg/ml, cultured for 42 hours, then 8 hours with 3H-TdR
[6] = sample concentration 10^-1 µg/ml, cultured for 4 days
[7] = sample concentration 10^-2 µg/ml, cultured for 4 days

| Molecule | activity at 1 µg/mL [1, 3] [%] | activity at 0.1 µg/mL [1, 4] [%] | activity at 0.01 µg/mL [1, 5] [%] | inhibition in vivo at 0.1 mg/kg (B16 mouse melanoma cells) [%] | other results |
| --- | --- | --- | --- | --- | --- |
| CCCCCCCCCCCCCCC[C@@H](O)[C@H](CO[C@H]1O[C@H](CO)[C@H](O)[C@H](O)[C@H]1O)NC(=O)CCCCCCCCCCCCC [Compound 5, (2S,3R)-1-(α-D-galactopyranosyloxy)-2-tetradecanoylamino-3-octadecanol] | 473 | 170 | 153 | 92.1 | lethality (male Crj:CD rats; single intravenous dose of 10 mg/kg): not lethal; autopsy findings (male Crj:CD rats; single intravenous doses of 0.1, 1.0 and 10 mg/kg): no abnormality was observed; LD50 at 168 h [2]: ≥ 10 mg/kg |
| CCCCCCCCCCCCCCCCCCCCCC[C@@H](O)C(=O)N[C@@H](CO[C@H]1O[C@H](CO)[C@H](O)[C@H](O)[C@H]1O)[C@H](O)[C@H](O)CCCCCCCCCCC [Compound 23, (2S,3S,4R)-1-(α-D-galactopyranosyloxy)-2-[(R)-2-hydroxytetracosanoylamino]-3,4-pentadecanediol] | 423 | 167 | 143 | 94.1 | – |
| CCCCCCCCCCCCCCCCCCCCCC[C@@H](O)C(=O)N[C@@H](CO[C@H]1O[C@H](CO)[C@H](O)[C@H](O)[C@H]1O)[C@H](O)[C@H](O)CCCCCCC [Compound 24, (2S,3S,4R)-1-(α-D-galactopyranosyloxy)-2-[(R)-2-hydroxytetracosanoylamino]-3,4-undecanediol] | 416 | 167 | 144 | 52.5 | – |
| CCCCCCCCCCCCCCCCCCCCCCCC[C@@H](O)C(=O)N[C@@H](CO[C@H]1O[C@H](CO)[C@H](O)[C@H](O)[C@H]1O)[C@H](O)[C@H](O)CCCCCCCCCCCCCC [Compound 25, (2S,3S,4R)-1-(α-D-galactopyranosyloxy)-2-[(R)-2-hydroxyhexacosanoylamino]-3,4-octadecanediol] | 230 | 179 | 161 | 92.8 | – |
| CCCCCCCCCCCCCCCCCCCCCCCC[C@@H](O)C(=O)N[C@@H](CO[C@H]1O[C@H](CO)[C@H](O)[C@H](O)[C@H]1O)[C@H](O)[C@H](O)CCCCCCCCCCCCCCC [Compound 26, (2S,3S,4R)-1-(α-D-galactopyranosyloxy)-2-[(R)-2-hydroxyhexacosanoylamino]-3,4-nonadecanediol] | 253 | 199 | 193 | 72.3 | – |
| CCCCCCCCCCCCCCCCCCCCCCCC[C@@H](O)C(=O)N[C@@H](CO[C@H]1O[C@H](CO)[C@H](O)[C@H](O)[C@H]1O)[C@H](O)[C@H](O)CCCCCCCCCCCCCCCC [Compound 27, (2S,3S,4R)-1-(α-D-galactopyranosyloxy)-2-[(R)-2-hydroxyhexacosanoylamino]-3,4-icosanediol] | 257 | 181 | 162 | 92.8 | – |
| CCCCCCCCCCCCCCCCCCCCCC[C@H](O)C(=O)N[C@@H](CO[C@H]1O[C@H](CO)[C@H](O)[C@H](O)[C@H]1O)[C@H](O)[C@H](O)CCCCCCCCCCCCC [Compound 28, (2S,3S,4R)-1-(α-D-galactopyranosyloxy)-2-[(S)-2-hydroxytetracosanoylamino]-3,4-heptadecanediol] | 357 | 172 | 141 | 76.2 | – |
| CCCCCCCC/C=C\CCCCCCCC(=O)N[C@@H](CO[C@H]1O[C@H](CO)[C@H](O)[C@H](O)[C@H]1O)[C@H](O)CCCCCCCCCCCCCCC [Compound 29, (2S,3R)-1-(α-D-galactopyranosyloxy)-2-oleoylamino-3-octadecanol] | 319 | 382 | 215 | 79.7 | – |
| CCCCCCCCCCCCCCCCCCCCCC[C@H](O)C(=O)N[C@@H](CO[C@H]1O[C@H](CO)[C@H](O)[C@H](O)[C@H]1O)[C@H](O)[C@H](O)CCCCCCCCCCCC(C)C [Compound 30, (2S,3S,4R)-1-(α-D-galactopyranosyloxy)-2-[(S)-2-hydroxytetracosanoylamino]-16-methyl-3,4-heptadecanediol] | 385 | 156 | 134 | 57.7 | – |
| CCCCCCCCCCCCCCCCCCCCCCCC(=O)N[C@@H](CO[C@H]1O[C@H](CO)[C@H](O)[C@H](O)[C@H]1O)[C@H](O)[C@H](O)CCCCCCCCCCCC(C)C [Compound 31, (2S,3S,4R)-1-(α-D-galactopyranosyloxy)-16-methyl-2-tetracosanoylamino-3,4-heptadecanediol] | 398 | 235 | 163 | 83.4 | – |
| CCCCCCCCCCCCCCCCCCCCCCC[C@@H](O)C(=O)N[C@@H](CO[C@H]1O[C@H](CO)[C@H](O)[C@H](O)[C@H]1O)[C@H](O)[C@H](O)CCCCCCCCCCCC(C)CC (stereo partly drawn) [Compound 34, (2S,3S,4R)-1-(α-D-galactopyranosyloxy)-2-[(R)-2-hydroxypentacosanoylamino]-16-methyl-3,4-octadecanediol] | – | – | – | 88.9 | activity at 0.1 µg/mL ([1]; 96 h, sample concentration 10^-1 µg/ml, cultured for 4 days): 360%; activity at 0.01 µg/mL ([1]; 96 h, sample concentration 10^-2 µg/ml, cultured for 4 days): 406% |
| CCCCCCCCCCCCC/C=C/[C@@H](O)[C@H](CO[C@H]1O[C@H](CO)[C@H](O)[C@H](O)[C@H]1O)NC(=O)CCCCCCCCCCCCC [Compound 35, (2S,3R,4E)-1-(α-D-galactopyranosyloxy)-2-tetradecanoylamino-4-octadecen-3-ol] | 562 | 261 | 247 | 63 | – |
| (2S,3S,4R)-1-(α-D-galactopyranosyloxy)-2-[(R)-2-hydroxytetracosanoylamino]-3,4-heptadecanediol [Compound 22] | – | – | – | – | Uptake of ^3H-TdR (% of control) ([1]; sample concentration 10^0 µg/ml, cultured for 42 hours, then 8 hours with 3H-TdR): 414 % of control; Uptake of ^3H-TdR (% of control) ([1]; sample concentration 10^-1 µg/ml, cultured for 42 hours, then 8 hours with 3H-TdR): 166 % of control; Uptake of ^3H-TdR (% of control) ([1]; sample concentration 10^-2 µg/ml, cultured for 42 hours, then 8 hours with 3H-TdR): 149 % of control; TGIR (%) (B16 mouse melanoma cells): 82.4% |
| (2S,3S,4R)-1-(α-D-galactopyranosyloxy)-2-[(R)-2-hydroxytetracosanoylamino]-3,4-hexadecanediol [Compound 32] | – | – | – | – | Uptake of ^3H-TdR (% of control) [1, 6]: 406 % of control; Uptake of ^3H-TdR (% of control) [1, 7]: 426 % of control; TGIR (%) (B16 mouse melanoma cells): 73.2% |
| (2S,3S,4R)-1-(α-D-galactopyranosyloxy)-2-[(R)-2-hydroxytricosanoylamino]-16-methyl-3,4-heptadecanediol [Compound 33] | – | – | – | – | Uptake of ^3H-TdR (% of control) [1, 6]: 365 % of control; Uptake of ^3H-TdR (% of control) [1, 7]: 422 % of control; TGIR (%) (B16 mouse melanoma cells): 76.5% |
